Reference: article PMC3189933, “Acylpeptide Hydrolase Inhibition as Targeted Strategy to Induce Proteasomal Down-Regulation” (PLoS ONE, 2011)
Values belong to the compound of their own block, whether it stands above or below them. Where a SMILES comes first, the peptide text is derived from it. Where no end group is shown, it is not given here. The star is where a group is joined. Cbz = O=C(OCc1ccccc1)*

How the values were obtained:
[1] = system: polyubiquitinylated proteins in Caco-2 cells; test: Protein ubiquitinylation in Caco-2 cells (immunoblot); format: cell-based, human; conditions: 48 h, 200 µM SsCEI 4 or t10c12-CLA, mixture, 100 µM ebelactone, 10 µM MG132, species 66 kDa to 160 kDa
From the text: The following antibodies were used: anti-APEH antibody (sc-102311; Santa Cruz Biotechnology); anti-NF-κB/p65 antibody (Thermo Scientific); anti-p21Waf1 antibody (Exbio); pan Ab-5 anti-actin antibody (clone ACTN05, Thermo Scientific); and monoclonal antibodies against polyubiquitinylated proteins conjugated with horseradish peroxidase (FK2H, Enzo, Life Science). The ΔF508CFTR-3HA protein was detected with an anti HA monoclonal antibody (Covance).

APEH in Caco-2 cells = test: APEH activity in Caco-2 cells; conditions: differentiated Caco-2 cells
Experimental: Porcine liver APEH activity was measured spectrophotometrically using the chromogenic substrate acetyl-Ala-pNA (Bachem). The reaction mixture (1 mL) containing pure APEH (38 ng) or an appropriate amount of cell extract in 50 mM Tris-HCl buffer pH 7.5 (Tris Buffer), was preincubated at 37°C for 2 min. Then, 1 mM acetyl-Ala-pNA was added and the release of p-nitroanilide (ε410 = 8800 M-1 cm-1) was measured by recording the absorbance increase at 410 nm on a Cary 100 Scan (Varian) UV/Vis spectrophotometer, equipped with a thermostated cuvette compartment. APEH activity was expressed in IU. The APEHSs activity was measured using acetyl-Leu-pNA (0.1 mM) (Sigma) as substrate. The reaction mixture (1 mL) containing the appropriate amount of enzyme in 25 mM Tris-HCl buffer pH 7.5, was preincubated at 80°C for 2 min. Then, 0.1 mM acetyl-Leu-pNA was added and the release of p-nitroanilide was measured, following the standard assay procedure described above.
Caco-2 cells (ATCC) were cultivated in DMEM supplemented with 10% FBS, 1 mM glutamine and 100 units/mL penicillin-streptomycin at 37°C in a humidified 5% CO2 atmosphere. The cells were studied between passages 12 and 22. The cells were split using trypsin-EDTA solution and plated in 6-well plates at a density of 8×10^4 cells/mL and the medium was replaced every 2–3 days. Under these conditions, the cells reached visual confluence after 7 days and the differentiated stage two weeks later. The differentiated cells were incubated for 48 h with the different substances.
Following the treatments, the BHK and Caco-2 cells were washed three times with ice cold phosphate-buffered saline and collected immediately at 4°C in lysis buffer (1% Triton X-100, 0.1% SDS, 20 mM Tris-HCl, pH 8.0, 150 mM NaCl, 0.5% sodium deoxycholate and complete protease inhibitors [Roche]). The lysates were centrifuged at 10,000×g for 15 min at 4°C. The protein concentrations in the clear supernatants were determined (BCA protein assay reagent kit; Pierce) before their use in enzymatic assays or SDS–PAGE.

APEHSs = test: Inhibition of S. solfataricus APEH (APEHSs), Ac-Leu-pNA substrate; format: biochemical, Sulfolobus solfataricus; conditions: increasing inhibitor concentrations, Ac-Leu-pNA, pre-incubated 30 min at 80°C
Experimental: (§1) APEH activity was expressed in IU.
(§2) Protease inhibitor activities of the SsCEI peptides and the CLA isomers were carried out using a fixed amount of APEH or partially purified proteasome (3–5 nM and 0.12 mg/mL, respectively), and increasing the SsCEI and CLA isomer concentrations. Mixtures were pre-incubated for 30 min at 37°C before the addition of the substrate, and the enzymatic activities were followed as described above. Protease inhibitor activities of the SsCEI peptides and the CLA isomers were determined towards APEHSs. The protease and increasing concentrations of the inhibitors were mixed and preincubated for 30 min at 80°C before the addition of the specific substrate. The residual enzymatic activity was determined using the assay procedure described above.
(§3) All data were obtained from triplicate analyses of three different preparations. Data were presented as means ±S.D. Statistical analysis and IC50 values were calculated with the SigmaPlot 10.0 software through a non-linear curve-fitting method and using a simple binding isotherm equation. Groups were compared by Student's t test, and P<0.05 was considered as significant.

porcine APEH [2] = target: T1, porcine APEH (Sus scrofa, UniProt P19205); test: Inhibition of porcine liver APEH, Ac-Ala-pNA substrate; format: biochemical; conditions: Ac-Ala-pNA, pre-incubated 30 min at 37°C
T1 construct: mammalian APEHs purified from both porcine liver and human colon carcinoma intestinal cells (Caco-2); purchased Takara; host or cells: porcine liver
T1 sequence (P19205 1-732): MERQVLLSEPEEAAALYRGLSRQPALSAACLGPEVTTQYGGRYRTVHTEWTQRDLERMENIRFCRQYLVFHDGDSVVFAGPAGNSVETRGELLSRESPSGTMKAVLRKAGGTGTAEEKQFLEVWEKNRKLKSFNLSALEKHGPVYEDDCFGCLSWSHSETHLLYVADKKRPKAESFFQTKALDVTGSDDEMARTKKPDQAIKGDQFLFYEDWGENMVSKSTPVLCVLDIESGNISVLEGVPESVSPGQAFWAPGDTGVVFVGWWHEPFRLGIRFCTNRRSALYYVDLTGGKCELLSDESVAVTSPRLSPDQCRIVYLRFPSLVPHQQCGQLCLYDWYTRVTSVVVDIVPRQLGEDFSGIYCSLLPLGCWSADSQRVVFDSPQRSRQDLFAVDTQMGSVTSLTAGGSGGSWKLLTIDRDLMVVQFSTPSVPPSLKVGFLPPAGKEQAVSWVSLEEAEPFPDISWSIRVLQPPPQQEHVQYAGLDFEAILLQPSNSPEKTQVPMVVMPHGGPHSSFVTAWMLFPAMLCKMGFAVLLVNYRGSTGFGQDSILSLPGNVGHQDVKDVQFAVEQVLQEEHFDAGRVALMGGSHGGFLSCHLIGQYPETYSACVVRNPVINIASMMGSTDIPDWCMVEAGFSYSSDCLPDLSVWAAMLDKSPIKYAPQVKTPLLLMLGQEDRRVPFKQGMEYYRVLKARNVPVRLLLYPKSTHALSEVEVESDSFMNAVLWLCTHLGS
Experimental: as §1, §2, §3

Caco-2 cells = test: LDH release cytotoxicity assay in Caco-2 cells; conditions: 48 h; for toxicity (LDH release) compared with MG132: 200 µM SsCEI 4 or t10c12-CLA, 100 µM ebelactone, MG132 10 µM
Experimental: The release of LDH was used as the marker for cell toxicity [48]. The culture supernatants were sampled at the end of the incubations and centrifuged (4,000×g, 5 min, and 4°C). Aliquots of the clear supernatant (10 µL) were incubated with 190 µL reaction buffer (200 mM Tris/HCl, pH 8.0, 0.7 mM p-iodonitrotetrazolium violet, 50 mM L-lactic acid, 0.3 mM phenazine methoxysulphate, 0.4 mM NAD,) for 30 min at 37°C. Absorbance was measured at 490 nm and the results were expressed as percentages of total LDH release from control cultures treated with 1% (w/v) Triton X-100 and calculated as: [(experimental value - blank value)/(total lysis -blank value)−100].

human APEH = target: T2, human APEH (Homo sapiens, UniProt P13798); test: Inhibition of human APEH purified from Caco-2 cells; format: biochemical; conditions: human APEH from Caco-2 cells, Ac-Ala-pNA; data not shown
T2 construct: Partial purification of human APEH and proteasome was carried out from protein extracts of Caco-2 cell; endogenous in cells; host or cells: Caco-2
T2 sequence (P13798 1-732): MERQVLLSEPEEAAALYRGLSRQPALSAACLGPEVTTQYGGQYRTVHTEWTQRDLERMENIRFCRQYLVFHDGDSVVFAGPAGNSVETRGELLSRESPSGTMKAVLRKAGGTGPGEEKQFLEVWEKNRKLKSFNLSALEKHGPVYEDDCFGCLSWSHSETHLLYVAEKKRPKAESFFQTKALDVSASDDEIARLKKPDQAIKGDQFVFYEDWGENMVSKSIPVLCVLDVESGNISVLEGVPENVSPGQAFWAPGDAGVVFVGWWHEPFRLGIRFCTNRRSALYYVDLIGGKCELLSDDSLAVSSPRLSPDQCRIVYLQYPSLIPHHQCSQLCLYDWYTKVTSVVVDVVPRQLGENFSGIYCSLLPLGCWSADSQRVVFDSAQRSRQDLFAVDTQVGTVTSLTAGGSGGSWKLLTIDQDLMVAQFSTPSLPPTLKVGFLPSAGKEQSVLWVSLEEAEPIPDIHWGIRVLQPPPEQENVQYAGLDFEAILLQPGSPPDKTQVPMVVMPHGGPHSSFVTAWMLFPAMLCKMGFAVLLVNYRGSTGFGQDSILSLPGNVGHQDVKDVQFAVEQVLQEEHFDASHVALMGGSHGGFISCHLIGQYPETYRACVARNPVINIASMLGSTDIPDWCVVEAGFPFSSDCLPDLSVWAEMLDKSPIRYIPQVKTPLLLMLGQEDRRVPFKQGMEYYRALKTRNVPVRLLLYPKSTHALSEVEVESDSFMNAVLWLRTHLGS
Experimental: APEH from Sulfolobus solfataricus was purified as previously reported. Partial purification of human APEH and proteasome was carried out from protein extracts of Caco-2 cell. Briefly, protein extracts (500 µg) were fractionated by gel filtration chromatography on a Superdex 200 PC 3.2/30 column connected to a SMART System (Pharmacia) equilibrated in buffer 50 mM Tris-HCl, pH 7.5, 100 mM NaCl, at 0.1 mL/min. The eluted fractions were assayed using the specific substrates for APEH and the proteasome. The active fractions were collected and used for further analysis.
as §1, §2

porcine APEH [3] = target: T1, porcine APEH; test: Time-dependent inhibition of APEH; format: biochemical; conditions: pre-incubation at least 20 min at 37°C, then diluted 1:5 into assay mixture with substrate
Experimental: The time-dependent inhibition of SsCEI 4 and t10c12-CLA towards APEH was assessed. Mixtures containing appropriate amounts of each inhibitor and of APEH were pre-incubated for 20 min at 37°C; they were then diluted (1∶5) into the standard assay mixture, which contained the substrate only. The enzymatic activity was followed as described above. Control samples were prepared by pre-incubating the same amounts of APEH without the inhibitors and then diluted in the standard assay mixture.

[4] = Enzymatic stability in 10% FBS; format: in vitro ADME; conditions: method as ref 19, data not shown
porcine APEH [5] = target: T1, porcine APEH; test: APEH inhibition in a reaction mixture containing the entire set of proteases; format: biochemical; conditions: mixture with trypsin, α-chymotrypsin, elastase, carboxypeptidase Y, subtilisin, thrombin; data not shown
porcine APEH [6] = target: T1, porcine APEH; test: RP-HPLC analysis of SsCEI 4 incubated with the target enzyme; format: in vitro ADME; conditions: 50 mM Tris pH 7.5, 37°C, up to 2 h, RP-HPLC C18, UV, printed 4 µM SsCEI 4 and 100 µM APEH
Experimental: The experiments were conducted at 37°C in 50 mM Tris buffer, pH 7.5. Solutions of SsCEI 4 and porcine APEH were incubated for up to 2 h at optimal concentrations (4 µM SsCEI 4 and 100 µM APEH) to guarantee a high degree of enzymatic inhibition. At specific time intervals, 195 µL aliquots were taken, and the reaction was stopped by addition of 5 µL TFA. The samples were then analysed directly by reverse-phase HPLC (Dionex BioLC) on a μBondapak C18 column (3.9×300 mm, Waters), eluted with a linear gradient (0–60% acetonitrile in 0.1% TFA) at a flow rate of 1 ml/min. Control peptide samples were incubated in the absence of the purified enzymes and run in parallel.

BHK cells = test: Cytotoxicity in BHK cells; format: cell-based, Baby Hamster; conditions: 100 µM, 24 h or 48 h; data not shown
Experimental: The cells were plated in 12-well plates, to a confluence of 60% for the 24-h incubations, and 40% for 48-h exposure to PIs. These treatments were initiated 24-h after the plating of the cells. Phase-contrast images of the cells were taken just before the lysis of the cells for protein analysis, using a Lica DM6000 inverted microscope.

Thermal CD spectroscopy = format: physicochemical; conditions: CD 37°C to 77°C in 10°C steps, 5 mM Tris–HCl pH 7.5
Experimental: CD spectra were obtained on a Jasco J-715 spectropolarimeter with 400 µL of 8.0×10^-7 M protein in 5 mM Tris–HCl pH 7.5. Hellman quartz cells of 0.1-cm-path length were used in the far UV (190–250 nm). The temperature of the sample cell was regulated by a PTC-348 WI thermostat and thermal CD was performed from 250 to 195 nm by raising the cell temperature from 37°C to 77°C. The thermal CD spectra were signal-averaged by combining three scans and the baseline was corrected by subtracting a buffer spectrum. The samples were then cooled back to 37°C to monitor the final folding of the peptides.

bovine α-chymotrypsin = bovine α-chymotrypsin (Bos taurus, UniProt P00766); test: Serine protease selectivity panel: α-chymotrypsin; format: biochemical; conditions: increasing peptide concentrations, hyperbolic fit (Figure S3); read-out: IC50 towards bovine α-chymotrypsin
[7] = Gel filtration (size-exclusion) analysis of oligomerization; format: physicochemical; conditions: 100 µM peptide
Experimental: Gel filtration chromatography was performed on a BioSep SEC-S2000 column equilibrated with 50 mM phosphate buffer pH 6.8, at a flow rate of 1.0 mL/min. A standard curve was built using a set of synthetic peptides with molecular weights between 1.500 amu and 2.500 amu. For this purpose, peptide aliquots were injected onto the column and a plot of KD versus log10 molecular weights (MW) was obtained, where KD = (Ve-Vo)/(VT-Vo), Ve is the elution volume of the sample, and VT and Vo are the total and void volumes of the column, respectively.

[8] = Stability in aqueous solution; format: physicochemical; conditions: at the concentrations required for CD analyses

Compound: CC(C)C[C@@H](C=O)NC(=O)[C@H](CC(C)C)NC(=O)[C@H](CC(C)C)NC(=O)OCc1ccccc1 [MG132] (Cbz-Leu-Leu-Leu-aldehyde)
polyubiquitin conjugates in cell extract [1]: presence of high-molecular-mass immunoreactive species
effect on APEH activity in Caco-2 cells (APEH in Caco-2 cells; MG132 10 µM, 48 h): no detectable effects

effect on porcine APEH activity (porcine APEH [2]): ineffective
Compound: CCCCCC/C=C/C=C\CCCCCCCC(=O)O [c9t11-CLA, cis9-trans11 CLA]
effect on APEHSs activity (APEHSs): no significant modulatory effect

Compound: CC[C@@H](C)[C@@H](O)[C@H](C)C(=O)[C@H](C)/C=C(\C)C[C@H](C)[C@@H]1OC(=O)[C@H]1CC [ebelactone]
polyubiquitin conjugates in cell extract [1]: presence of high-molecular-mass immunoreactive species
toxicity (LDH release) compared with MG132 (Caco-2 cells): significantly lower than that observed in culture incubated with MG132

Compound: TILAEIKNINAD-NH2 [SsCEI 4]
decrease of APEH activity in Caco-2 cells (APEH in Caco-2 cells; 200 µM, 48 h (maximum effect)): 70%
toxicity (LDH release) compared with MG132 (Caco-2 cells): significantly lower than that observed in culture incubated with MG132
cytotoxic effect (LDH activity levels) (Caco-2 cells; up to highest concentration 200 µM): not associated with any cytotoxic effect
IC50 towards human APEH relative to porcine APEH (human APEH): Comparable
inhibition of APEH after pre-incubation with the enzyme (porcine APEH [3]): 100%
enzymatic stability in 10% FBS [4]: completely stable for at least one week
inhibition efficiency and Ki towards APEH in presence of the entire protease set (porcine APEH [5]): comparable to those measured in the presence of the APEH alone
stability of peptide incubated with APEH (degradation / adducts) (porcine APEH [6]): neither peptide degradation nor covalent binding with APEH occurred
cytotoxic effects in BHK cells (BHK cells): without any cytotoxic effects

structural stability with temperature (CD) (Thermal CD spectroscopy): considerable structural stability
IC50 (bovine α-chymotrypsin): 21.9 ± 6.4 µM
IC50 towards human APEH relative to porcine APEH (human APEH): Comparable
Compound: TILLEIKNINAD-NH2 [SsCEI 2]

Compound: YAIDTILA EIKNINAD [SsCEI 3]
structural stability with temperature (CD) (Thermal CD spectroscopy): considerable structural stability
effect on APEHSs activity (APEHSs): no detectable decrease
Measured mass value (apparent MW by gel filtration) ([7]; BioSep SEC-S2000, 50 mM phosphate pH 6.8, Da±SD, three independent determinations): 2012±150 Da
oligomerization state ([7]; size-exclusion chromatography): essentially monomers

stability in aqueous solution [8]: poor stability in aqueous solution
Compound: YAIDTILLEIKNINAD-NH2 [SsCEI 1]
